≈ marks a conversion by molar mass, not a printed value. Calls of active or inactive are those of the source. No cut-off for these calls is given here.
Experiments:
[1] = system: Mus musculus; assay: Toxicity in NOD/SCID mouse assessed as change in weight loss up to 200 mg/kg, po administered gavage treated for 7 consecutive days measured for 7 days post last dose; format: organism-based; conditions: in vivo, 168 h
[2] = Octanol-phosphate buffer partition coefficient, logD of compound at pH 7.4 by HPLC-UV analysis; format: physicochemical
[3] = Permeability of the compound by PAMPA; format: ADME; conditions: read-out: permeability
[4] = molecular target: Cytochrome P450 2D6 (Homo sapiens, UniProt P10635); assay: Inhibition of CYP2D6 in human liver microsomes using dextromethorphan as substrate preincubated for 5 mins followed by NADPH addition by LC-MS/MS analysis; format: ADME
[5] = Thermodynamic solubility of the compound at pH 4 to 7.4 pION buffer after 18 hrs by UV spectrophotometric analysis; format: physicochemical; conditions: read-out: Therm_solubility
[6] = Half life in dog liver microsomes at 1 uM in presence of NADPH by LC-MS/MS analysis; format: ADME, Canis lupus familiaris, microsome
[7] = Apparent permeability of the compound across apical side to basolateral side in human Caco2 cells by LC-MS/MS analysis; format: ADME, cell-based; conditions: Caco-2
[8] = Protein binding in human plasma at […] after 5 hrs by LC-MS/MS analysis; format: ADME, cell-free; conditions: read-out: PPB (converted)
[9] = Protein binding in mouse plasma at […] after 5 hrs by LC-MS/MS analysis; format: ADME, cell-free; conditions: read-out: PPB (converted)
[10] = Initial concentration in CD-1 mouse at 1 mg/kg, iv administered as single dose by LC-MS/MS analysis; format: ADME, organism-based; conditions: in vivo
[11] = AUClast in CD-1 mouse at 5 mg/kg, po administered via gavage as single dose by LC-MS/MS analysis; format: ADME, organism-based; design: dose 5 mg/kg, time 0 - last, route oral; conditions: in vivo
[12] = AUClast in CD-1 mouse at 1 mg/kg, iv administered as single dose by LC-MS/MS analysis; format: ADME, organism-based; design: dose 1 mg/kg, time 0 - last, route intravenous; conditions: in vivo
[13] = Cmax in CD-1 mouse at 5 mg/kg, po administered via gavage as single dose by LC-MS/MS analysis; format: ADME, organism-based; design: dose 5 mg/kg, route oral; conditions: in vivo
[14] = Clearance in CD-1 mouse at 1 mg/kg, iv administered as single dose by LC-MS/MS analysis; format: ADME, organism-based; conditions: in vivo
[15] = Half life in CD-1 mouse at 1 mg/kg, iv administered as single dose by LC-MS/MS analysis; format: ADME, organism-based; conditions: in vivo
[16] = Half life in CD-1 mouse at 5 mg/kg, po administered via gavage as single dose by LC-MS/MS analysis; format: ADME, organism-based; conditions: in vivo
[17] = Oral bioavailability in CD-1 mouse at 5 mg/kg administered via gavage as single dose by LC-MS/MS analysis; format: ADME, organism-based; conditions: in vivo
[18] = system: Mus musculus; assay: Toxicity in NOD/SCID mouse assessed as clinical adverse effect up to 200 mg/kg, po administered gavage treated for 7 consecutive days measured for 7 days post last dose; format: organism-based; conditions: in vivo, 168 h
[19] = system: K562; assay: Antitumor activity against human K562 cells overexpressing GFP-fussed full length mouse eIF4E xenografted in SCID mouse assessed as tumor growth inhibition at 100 mg/kg, po qd administered via gavage for 14 days relative to control; conditions: 336 h, read-out: TGI
[20] = molecular target: Dual specificity mitogen-activated protein kinase kinase; MEK1/2 (Homo sapiens) (UniProt P36507+Q02750); assay: Inhibition of MEK (unknown origin) at 1 uM by KINOMEscan assay relative to control; format: protein assay
[21] = system: K562; assay: Antitumor activity against human K562 cells overexpressing GFP-fussed full length mouse eIF4E xenografted in SCID mouse assessed as tumor growth inhibition administered as qd via gavage for 14 days cotreated with 2.5 mg/kg dasatinib for 1 hr post dose; format: functional, organism-based
[22] = system: Mus musculus; assay: Toxicity in SCID mouse xenografted with human K562 cells overexpressing GFP-fussed full length mouse eIF4E assessed as weight loss at 25 to 100 mg/kg, po qd administered via gavage for 14 days cotreated with 2.5 mg/kg dasatinib for 1 hr post dose; format: organism-based; conditions: in vivo
[23] = species on record: Homo sapiens; assay: Antiproliferative activity against human GK5 cells after 48 hrs by CellTiter-Glo luminescence assay; format: functional, cell-based
[24] = system: DOHH-2; assay: Antiproliferative activity against human DOHH2 cells after 48 hrs by CellTiter-Glo luminescence assay; format: functional, cell-based
[25] = species on record: Homo sapiens; assay: Antiproliferative activity against human AHH1 cells after 48 hrs by CellTiter-Glo luminescence assay; format: functional, cell-based
[26] = system: P3HR-1; assay: Antiproliferative activity against human P3HR1 cells after 48 hrs by CellTiter-Glo luminescence assay; format: functional, cell-based
[27] = system: Mus musculus; assay: Down regulation of phosphorylated CRKL in CB17 SCID mouse xenografted with human K562 cells overexpressing GFP-fussed full length mouse eIF4E at 100 mg/kg, po administered as single dose up to 8 hrs cotreated with 2.5 mg/kg dasatinib by Western blot; format: functional, organism-based
[28] = system: Mus musculus; assay: Down regulation of phosphorylated eIF4E in CB17 SCID mouse xenografted with human K562 cells overexpressing GFP-fussed full length mouse eIF4E at 100 mg/kg, po administered as single dose up to 8 hrs cotreated with 2.5 mg/kg dasatinib by Western blot; format: functional, organism-based
[29] = system: K562; assay: Antitumor activity against human K562 cells overexpressing GFP-fussed full length mouse eIF4E xenografted in SCID mouse assessed as increase in tumor free animal at 100 mg/kg, po administered as qd via gavage for 14 days cotreated with 2.5 mg/kg dasatinib for 1 hr post dose; format: functional, organism-based
[30] = molecular target: Cytochrome P450 3A4 (Homo sapiens, UniProt P08684)
Description: Inhibition of CYP3A4 in human liver microsomes using midazolam as substrate preincubated for 5 mins followed by NADPH addition measured after 5 mins by LC-MS/MS analysis

[31] = in vivo; conditions: CD-1, mouse, po, 5 mg/kg
Description: Tmax in CD-1 mouse at 5 mg/kg, po administered via gavage as single dose by LC-MS/MS analysis

[32] = in vitro; conditions: human, liver microsomes
Description: Half life in human liver microsomes at 1 uM in presence of NADPH by LC-MS/MS analysis

[33] = in vitro; conditions: mouse, liver microsomes
Description: Half life in mouse liver microsomes at 1 uM in presence of NADPH by LC-MS/MS analysis

[34] = in vitro; conditions: rat, liver microsomes
Description: Half life in rat liver microsomes at 1 uM in presence of NADPH by LC-MS/MS analysis

Chain of Cytochrome P450 2D6 (P10635 whole entry): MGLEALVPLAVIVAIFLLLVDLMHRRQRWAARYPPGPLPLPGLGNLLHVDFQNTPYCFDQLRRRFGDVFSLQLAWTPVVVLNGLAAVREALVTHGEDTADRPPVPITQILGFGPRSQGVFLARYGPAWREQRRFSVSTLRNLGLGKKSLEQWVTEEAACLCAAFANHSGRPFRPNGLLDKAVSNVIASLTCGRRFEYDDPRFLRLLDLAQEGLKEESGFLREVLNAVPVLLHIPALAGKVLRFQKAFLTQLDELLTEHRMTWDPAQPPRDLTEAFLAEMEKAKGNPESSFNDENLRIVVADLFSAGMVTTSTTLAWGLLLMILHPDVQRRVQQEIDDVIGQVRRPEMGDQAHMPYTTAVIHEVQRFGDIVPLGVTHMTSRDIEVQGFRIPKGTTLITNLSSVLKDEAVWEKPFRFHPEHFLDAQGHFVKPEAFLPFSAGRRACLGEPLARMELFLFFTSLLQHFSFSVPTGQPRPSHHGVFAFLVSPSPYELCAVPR
Chain of Dual specificity mitogen-activated protein kinase kinase; MEK1/2 (Homo sapiens) (P36507 whole entry, looked up): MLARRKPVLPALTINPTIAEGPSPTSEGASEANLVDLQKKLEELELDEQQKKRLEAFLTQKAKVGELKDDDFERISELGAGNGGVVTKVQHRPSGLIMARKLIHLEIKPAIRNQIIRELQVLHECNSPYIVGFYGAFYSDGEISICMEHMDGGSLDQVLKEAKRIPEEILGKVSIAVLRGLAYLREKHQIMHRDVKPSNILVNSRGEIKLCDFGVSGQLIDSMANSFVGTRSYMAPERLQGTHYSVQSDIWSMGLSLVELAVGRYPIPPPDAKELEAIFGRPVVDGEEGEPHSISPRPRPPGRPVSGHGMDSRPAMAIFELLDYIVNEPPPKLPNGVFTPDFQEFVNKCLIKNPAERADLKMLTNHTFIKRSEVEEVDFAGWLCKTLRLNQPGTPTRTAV
Chain of Dual specificity mitogen-activated protein kinase kinase; MEK1/2 (Homo sapiens) (Q02750 whole entry, looked up): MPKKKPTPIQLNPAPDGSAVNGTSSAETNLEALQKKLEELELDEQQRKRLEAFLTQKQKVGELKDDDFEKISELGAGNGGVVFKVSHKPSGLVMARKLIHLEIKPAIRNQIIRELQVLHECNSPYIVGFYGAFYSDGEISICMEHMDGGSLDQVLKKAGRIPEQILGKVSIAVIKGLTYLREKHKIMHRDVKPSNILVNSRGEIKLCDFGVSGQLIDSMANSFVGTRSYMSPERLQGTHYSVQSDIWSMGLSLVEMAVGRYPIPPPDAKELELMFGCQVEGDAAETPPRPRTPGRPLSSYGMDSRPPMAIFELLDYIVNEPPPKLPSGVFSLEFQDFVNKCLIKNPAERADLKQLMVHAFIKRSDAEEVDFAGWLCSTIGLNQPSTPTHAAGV
Chain of Cytochrome P450 3A4 (P08684 whole entry): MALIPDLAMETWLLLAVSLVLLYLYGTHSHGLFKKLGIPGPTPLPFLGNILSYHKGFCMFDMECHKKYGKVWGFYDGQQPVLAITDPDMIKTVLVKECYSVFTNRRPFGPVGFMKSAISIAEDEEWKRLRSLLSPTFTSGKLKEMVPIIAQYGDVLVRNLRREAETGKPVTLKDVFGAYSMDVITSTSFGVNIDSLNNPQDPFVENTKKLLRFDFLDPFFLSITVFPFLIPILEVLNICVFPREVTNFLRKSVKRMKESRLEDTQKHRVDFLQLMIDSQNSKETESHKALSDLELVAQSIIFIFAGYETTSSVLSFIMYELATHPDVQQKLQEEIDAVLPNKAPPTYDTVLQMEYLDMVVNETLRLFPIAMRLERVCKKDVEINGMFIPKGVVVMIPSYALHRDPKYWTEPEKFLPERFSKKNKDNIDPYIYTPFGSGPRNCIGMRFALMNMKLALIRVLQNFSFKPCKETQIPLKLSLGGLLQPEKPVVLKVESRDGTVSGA

logD [2]: 2.61
Papp [3]: 74.4 ×10⁻⁶ cm/s
IC50 [4]: > 20 µM
solubility thermodynamic at 18 h [5]: 55.4 µg/mL (≈ 136 µM)
half-life at 1 µM [6]: > 60 min
Papp A→B [7]: 30.5 ×10⁻⁶ cm/s
fraction unbound at 5 h [8]: 0.003
fraction unbound at 5 h [9]: 0.158
C0 [10]: 2380 ng/mL
AUC(0-t) [11]: 5480 ng·h/mL
AUC(0-t) [12]: 1760 ng·h/mL
Cmax [13]: 2480 ng/mL
clearance [14]: 9.33 mL/min/kg
half-life [15]: 102 min
half-life [16]: 106 min
bioavailability [17]: 64%
inhibition [20]: > 65%
IC50 [30]: > 20 µM
Tmax [31]: 30 min
half-life at 1 µM [32]: 48 min
half-life at 1 µM [33]: 56 min
half-life at 1 µM [34]: > 60 min
SMILES: N#Cc1ccc(-c2cnc3ccc(-c4ccc(C(=O)N5CCOCC5)cc4)cn23)cc1 [TINODASERTIB]
Activity [1]: Non-Toxic
Activity [18]: Non-Toxic
inhibition in vivo at 100 mg/kg [19]: 23%
TGI [21]: Dose-dependent effect
Activity [22]: Non-Toxic
Activity [23]: Active
Activity [24]: Active
Activity [25]: Active
Activity [26]: Active
Activity [27]: Active
Activity [28]: Active
Activity [29]: Active

From ChEMBL document CHEMBL4184320, “Optimization of Selective Mitogen-Activated Protein Kinase Interacting Kinases 1 and 2 Inhibitors for the Treatment of Blast Crisis Leukemia” (J Med Chem, 2018)
